According to patent publication US6752929B1, “Methods of separating FTC isomers and derivatives thereof” (Johnson Matthey Pharmaceutical Materials, Inc., priority 1999, dated 2004):

Experiment: Solubility of cis-FTC Ester in various solvent systems
Type: physicochemical
Details: 100% ethyl acetate, 20° C.
Description: Therefore, the solubility of the FTC ester in several solvent systems was determined.

Solubility: 3.03%??
SMILES: CCCC(=O)OC[C@@H]1O[C@H](n2cc(F)c(N)nc2=O)CS1 (relative stereo) [cis-FTC Ester, cis-{5-(4-amino-5-fluoro-2-oxo-1(2H)-pyrimidinyl)-1,3-oxathiolan-2-yl}methyl butanoate]
